Assay results published in ChEMBL document CHEMBL5604062, “ASAP - ZIKV NS2B-NS3 protease fluorescence dose response” (2024).
“And” between values parts separate entries of the source, which are not always exact repeats. Equal entries are not always repeated.

Biological target: Nonstructural protein 3 (Zika virus, UniProt A0A024AXB9)
Experiment: Functional biochemical assay to identify treatments for viral infectious disease that targets Zika NS2B-NS3 protease. Utilizing a direct enzyme activity measurement method, reading the fluorescence intensity is used to characterize the relative potency of inhibitors as IC50.
Set-up: species or system PRVABC59

Sequence of Nonstructural protein 3 (A0A024AXB9 whole entry): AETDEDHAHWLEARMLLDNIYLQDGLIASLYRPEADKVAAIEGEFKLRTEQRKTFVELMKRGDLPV

Structure (SMILES) | IC50
CC(C)(C)NS(=O)(=O)c1cccc(C(=O)Nc2cccc(CN)c2)c1 | > 99.5 µM
CCn1cc(-c2cn(C)nc2C(F)(F)F)nc(N2CC[C@@H](CO)C2)c1=O | > 99.5 µM
Cc1nc([C@H]2CCCNC2)[nH]c1C(=O)Nc1ccccn1 | > 99.5 µM
CC[C@H](Cc1nnn[nH]1)c1ccc(NC(=O)c2cc(Cl)cc(C#N)c2)cc1 | > 99.5 µM
O=C(Nc1cc(Cl)cc(C(=O)NCc2n[nH]c3c2CNCC3)c1)OCc1ccccc1 | > 99.5 µM
O=C(O)CCCc1cc(NC(=O)c2cc(F)cc3[nH]ncc23)cc2c1CNC2 | 0.062 µM and 0.038 µM
Cn1cc(-c2cccc([C@H](NC(=O)OCc3ccccc3)C(=O)Nc3cccc(CN)c3)c2)cn1 | > 99.5 µM
N#Cc1cc(Cl)cc(C(=O)Nc2cccc(-n3nn[nH]c3=O)c2)c1 | > 99.5 µM
NCc1cccc(NC(=O)[C@H]2COCC3(CCC3)O2)c1 | > 99.5 µM
O=C(Nc1ccc2c(c1)CNC2)c1cc(Cl)cc2nn(C3CCC3)cc12 | 0.176 µM
CC1(C)C(=O)Nc2ccc(C(=O)Nc3ccc4c(c3)CNC4)cc21 | 7.49 µM
NCc1cccc(NC(=O)c2cc(Cl)cc(NC(=O)OCc3ccccc3)c2)c1 | 4.79 µM
CN(C)Cc1cc(NC(=O)[C@H](NC(=O)OCc2ccccc2)c2ccc(OCc3ccccc3)cc2)sn1 | > 99.5 µM
COCc1ccccc1Nc1ccc(S(=O)(=O)Nc2ccc(Cl)cc2C(=O)O)cn1 | 98.8 µM
Cc1nccnc1Oc1ccc(S(=O)(=O)Nc2ccc(Cl)cc2C(=O)O)cc1 | > 99.5 µM
Cn1c(C(=O)N2CCCc3ccc(C(F)F)cc32)cc2c1CCNC2 | > 99.5 µM
CCn1nccc1-c1cn(CC)c(=O)c(N2CC[C@@H](CO)C2)n1 | > 99.5 µM
NC(=O)[C@H](c1c[nH]c2ccccc12)N1CCC(c2cnc3ccc[nH]c2-3)CC1 | 96.5 µM
O=C1CCc2c(cccc2C(=O)Nc2ccc3c(c2)CNC3)N1 | 0.96 µM
Clc1cccc([C@H](C#Cc2ccccc2)Nc2ccc3c(c2)CNC3)c1 | 5.26 µM
CSc1cc(Cl)cc(C(=O)Nc2cccc(CN)c2)c1 | 10.4 µM
NC[C@H]1CCN1C(=O)[C@@H](NC(=O)OCc1ccccc1)c1ccc(OCc2ccccc2)cc1 | > 99.5 µM
O=C(Nc1ccc2c(c1)CNC2)c1cc(Cl)cc2cn[nH]c12 | 0.047 µM and 0.042 µM
O=C(Nc1ccc2c(c1)CNC2)N1CCC[C@H](CC2CCC2)C1 | > 25 µM
NCc1ccc(C[C@H](NC(=O)c2ccccc2)C(=O)N2CCCCC2)cc1 | > 99.5 µM
NCc1cccc(NC(=O)C[C@@H]2[C@H]3CC[C@H](C3)N2C(=O)OCc2ccccc2)c1 | > 99.5 µM
NCc1ccc(C[C@H](NC(=O)c2ccccc2)C(=O)Nc2cccc(CN)c2)cc1 | > 99.5 µM

Structure (SMILES) | IC50
O=C(Nc1ccc2c(c1)CNC2)c1cc(F)cc(-c2cccnc2)c1 | 0.09 µM and 0.087 µM
CCC1([C@H](NC(=O)OCc2ccccc2)C(=O)NCc2cccc(CN)c2)CCCCC1 | > 99.5 µM
CCn1c(=O)c(N2CC[C@]3(CCSC3)C2)nc2ccccc21 | > 99.5 µM
c1ccc2nc(SCc3cn4ccccc4n3)cnc2c1 | > 99.5 µM
O=C1Cc2c(cccc2C(=O)Nc2cc3c(cn2)OCCO3)N1 | > 25 µM
O=C(Nc1cc(-c2cccnc2)ccn1)c1cc(C2CC2)no1 | > 25 µM
NC(=O)c1cccc(NC(=O)c2cc(Cl)cc(NC(=O)OCc3ccccc3)c2)c1 | > 99.5 µM
Clc1cc(CNc2ccc3c(c2)[C@@H]2CC[C@H]3N2)c2cn[nH]c2c1 | > 25 µM
O=C(Nc1ccc2c(c1)CNC2)c1cc(Cl)cc2nn(C3CCOCC3)cc12 | 0.132 µM
O=C(c1cc(Cl)cc2[nH]ncc12)N1C[C@H]2CNC[C@H]2C1 | > 99.5 µM
c1cncc(CC2CN(Cc3n[nH]c4ccccc34)C2)c1 | > 99.5 µM
CCn1c(=O)c(N2CC[C@H](c3nncs3)C2)nc2ccccc21 | > 99.5 µM
O=C1Cc2cc(C(=O)Nc3ccc4c(c3)CNC4)c(Cl)cc2N1 | > 25 µM
O=C(Nc1ccc2c(c1)CNC2)c1cnnc2ccccc12 | 19.6 µM
Cc1c(C(=O)Nc2ccc3c(c2)CNC3)cc(C2CC2)n1C | 15.8 µM
OCCOc1cc(COc2cccnc2F)nc(N2CCNCC2)n1 | > 99.5 µM
NCc1cccc(NC(=O)c2cc(Cl)cc(Cl)c2)c1 | 5.55 µM
O=Cc1ccc(N2CCC(C(=O)N3CCC(N4CCc5ccccc5C4)CC3)CC2)cc1 | > 0.782 µM
O=S(=O)(Nc1ccc(Cl)cc1CO)c1ccc(Oc2ccccc2Cl)cc1 | > 99.5 µM
O=C(O)c1cc(Cl)ccc1NS(=O)(=O)c1ccc(-c2cn[nH]c2)cc1 | > 99.5 µM
O=C(Nc1ccc2c(c1)CNC2)c1cc2ncccc2s1 | > 25 µM
O=C(O)c1cc(Cl)ccc1S(=O)(=O)N[C@H]1CC[C@@H](Oc2cnccn2)CC1 | > 99.5 µM
CCn1c(=O)c(N2CC[C@H](CO)C2)nc2cc(C(=O)NS(C)(=O)=O)ccc21 | > 99.5 µM
Cc1[nH]c2ccc(Br)cc2c1CC(=O)Nc1cccc(CN)c1 | > 99.5 µM
O=C(Nc1ccc2c(c1)CNC2)c1cc(F)c2[nH]ccc2c1 | 0.274 µM
COCCNC(=O)[C@H](Nc1cccc(-c2nn[nH]n2)c1)c1cc(Cl)cc(NC(=O)OCc2ccccc2)c1 | > 99.5 µM
CS(=O)(=O)NC(=O)c1cc(Cl)ccc1NS(=O)(=O)c1ccc(Oc2ccccc2Cl)cc1 | 36.2 µM

Structure (SMILES) | IC50
O=C(Nc1ccc2c(c1)CNC2)c1cc(Cl)cc2nn[nH]c12 | 9.55 µM
NCc1cccc(Oc2ccc(S(=O)(=O)Nc3ccc(Cl)cc3C(=O)NCC(F)(F)F)cc2)c1 | > 99.5 µM
O=C(Nc1cc(-c2cccnc2)ccn1)c1c[nH]c2ncccc12 | > 25 µM
C[C@@]1(c2cccc(CN)c2)C[C@H]1c1cc(Cl)cc(NC(=O)OCc2ccccc2)c1 | 5.57 µM
CCn1cc(C#N)nc(N2CC[C@@H](CO)C2)c1=O | > 99.5 µM
NCc1cccc([C@@H]2[C@H](C(=O)O)[C@H]2c2cc(N)cc(Cl)c2)c1 | > 99.5 µM
C[C@H]1CC2(CN1C(=O)Nc1ccc3c(c1)CNC3)CC(F)(F)C2 | > 25 µM
O=C(Nc1ccc2c(c1)CNC2)c1cccc2ccncc12 | 0.382 µM
O=C(Nc1cc(-c2cccnc2)ccn1)c1cc(C2CC2)oc1C1CC1 | > 25 µM
Cn1nc(C2CCN(C(=O)c3ccccc3CSc3nnc[nH]3)CC2)cc1O | > 99.5 µM
Cc1ncsc1C(=O)N[C@H](C(=O)Nc1cccc(CN)c1)c1ccc(OCc2ccccc2)cc1 | > 99.5 µM
O=C1NCc2ccc(NC(=O)c3cc(Cl)cc4[nH]ncc34)cc21 | > 99.5 µM
O=C(Nc1cc(Cl)cc(C(=O)Nc2ccc3c(c2)CNC3=O)c1)OCc1ccccc1 | > 99.5 µM
O=C(c1cc(Cl)cc2[nH]ncc12)N1CCC(C2CCNCC2)CC1 | > 99.5 µM
C[C@H](NC(=O)c1cc(Cl)cc(NC(=O)OCc2ccccc2)c1)C(=O)O | > 99.5 µM
NC[C@H]1CC[C@H](NC(=O)c2cc(Cl)cc(NC(=O)OCc3ccccc3)c2)CC1 | > 99.5 µM
O=C(O)c1cc(Cl)ccc1NS(=O)(=O)c1ccc(-c2cncs2)cc1 | 34.4 µM
Cc1c(C(=O)Nc2cccc(C(=O)NC3CC3)c2)cc(C2CC2)n1C | > 25 µM
O=C(c1cc(Cl)ccc1NS(=O)(=O)c1ccc(Oc2ccccc2Cl)cc1)N1CCCC1 | > 99.5 µM
O=C(Nc1cc2c(c(-c3ccnnc3)c1)CNC2)c1cc(Cl)cc2[nH]ncc12 | 0.062 µM and 0.035 µM
NCCc1ccc([C@H]2C[C@@H]2c2cc(Cl)cc(NC(=O)OCc3ccccc3)c2)cc1 | 2.53 µM
N#Cc1cccc2c(CN3CCC(c4cscn4)CC3)c[nH]c12 | > 99.5 µM
NCc1cccc(NC(=O)[C@@H](NC(=O)OCc2ccccc2)c2ccc(-c3ccccc3F)cc2)c1 | 8.51 µM
O=C(Nc1cc(Cl)cc(C(=O)Nc2ccc3c(c2)[C@H]2CC[C@H]3N2)c1)OCc1ccccc1 | 23.9 µM
NCc1cccc(NC(=O)[C@@H](NC(=O)OCc2ccccc2)c2ccc(-c3cccnc3F)cc2)c1 | 45.1 µM
CCn1c(=O)c(N2CC[C@]3(CCCN(C)C3)C2)nc2ccccc21 | > 99.5 µM
CNC(=O)[C@H](Nc1cccc(N)n1)c1cc(Cl)cc(CNC(=O)OC(C)(C)C)c1 | > 99.5 µM

Structure (SMILES) | IC50
O=C(Nc1cc(Cl)cc(C(=O)Nc2cc3n(n2)CCNC3)c1)OCc1ccccc1 | > 99.5 µM
Cc1c(C(=O)Nc2cc(C(=O)N3CC[C@H](C(N)=O)C3)ccn2)cc(C2CC2)n1C | > 25 µM
Cc1ccc2cccc(NC(=O)C3CCN(c4ccc(C=O)cc4)CC3)c2n1 | 30.3 µM
O=C(Nc1cc(Cl)cc(C(=O)Nc2ccc(N3CCCNCC3)cc2)c1)OCc1ccccc1 | 8.78 µM
Cc1oc(C2CC2)nc1C(=O)Nc1cc(CCCN)ccn1 | > 99.5 µM
CC(=O)Nc1cccc(CNC(=O)C2CCN(c3ccc(C=O)cc3)CC2)c1 | > 99.9 µM
NCc1cccc(NC(=O)[C@@H](NC(=O)OCc2ccccc2)c2ccc(F)c(F)c2)c1 | > 99.5 µM
NC1CCN(c2ccc(NC(=O)c3cc(Cl)cc(NC(=O)OCc4ccccc4)c3)cc2)CC1 | 7.28 µM
O=C(O)C[C@H](NC(=O)OCc1ccccc1)c1ccc(OCc2ccccc2)c(Br)c1 | > 99.5 µM
O=C(NCC(F)(F)F)c1cc(Cl)c(F)cc1NS(=O)(=O)c1ccc(Oc2ccccc2Cl)cc1 | 10.6 µM
CCn1ccnc(N2CC[C@H](c3ccc(OC)nc3)C2)c1=O | > 99.5 µM
NS(=O)(=O)c1cc(F)c(Cl)cc1N1CCN(c2ccnc(O)c2)CC1 | > 99.5 µM
CCCc1sc(C(=O)Nc2cccc(-c3nnn[nH]3)c2)cc1CC | > 99.5 µM
CC(C)Nc1nc2ccc(C(=O)Nc3nnnn3-c3ccccn3)cc2[nH]1 | > 99.5 µM
FC(F)(F)Oc1cc(Cl)cc2c(CN3CCC(c4cscn4)CC3)c[nH]c12 | > 99.5 µM
Cc1cc(C(=O)Nc2cccc(CN)c2)cc(O)n1 | > 99.5 µM
CN1Cc2ccc(CNC(=O)[C@@H](NC(=O)OCc3ccccc3)c3ccc(OCc4ccccc4)cc3)cc2C1 | 72.4 µM
Cc1ccc(-c2cc(CN)cc([C@@H]3C[C@H]3c3cc(Cl)cc(NC(=O)OCc4ccccc4)c3)c2)cn1 | 3.56 µM
O=C(Nc1ccc2c(c1)S(=O)(=O)NC2)c1cc(Cl)cc2[nH]ncc12 | > 25 µM
O=C(Nc1cc(-c2cccnc2)ccn1)c1cnc(C2CC2)s1 | > 25 µM
CC(C)n1ncc2c(C(=O)Nc3ccc4c(c3)CNC4)cc(Cl)cc21 | 0.186 µM
CCn1cc(-c2ccc([C@@H](NC(=O)OCc3ccccc3)C(=O)Nc3cccc(CN)c3)cc2)cn1 | 97.2 µM
c1cnc2c(CN3CCC(c4c[nH]c5cccnc45)CC3)c[nH]c2c1 | 44.4 µM
Cc1cc(C)n(-c2ccc(NS(=O)(=O)c3ccc(Cl)cc3C(=O)O)cc2)n1 | > 99.5 µM
